Where “and” joins values, the source holds several entries; their conditions need not be identical. Equal entries are not always repeated.
Conditions: Hot wire method

F/C=C/C(F)(F)F [trans-1,3,3,3-tetrafluoropropene]
Conditions	thermal conductivity
341.16 K, 8206 kPa, Liquid	0.06693 W/m/K
341.17 K, 3028 kPa, Liquid	0.06204 W/m/K
341.17 K, 12132 kPa, Liquid	0.07036 W/m/K
341.2 K, 1573 kPa, Liquid	0.06027 W/m/K
341.38 K, 96 kPa, Gas	0.01689 W/m/K
341.39 K, 20076 kPa, Liquid	0.07508 W/m/K
341.4 K, 194 kPa, Gas	0.01707 W/m/K
341.4 K, 3026 kPa, Liquid	0.06202 W/m/K
341.42 K, 8129 kPa, Liquid	0.06706 W/m/K
341.42 K, 16390 kPa, Liquid	0.07285 W/m/K
341.44 K, 21979 kPa, Liquid	0.07653 W/m/K
341.45 K, 1581 kPa, Liquid	0.06025 W/m/K
341.48 K, 12128 kPa, Liquid	0.07023 W/m/K
341.48 K, 20072 kPa, Liquid	0.07503 W/m/K
341.49 K, 5174 kPa, Liquid	0.06424 W/m/K
341.5 K, 3025 kPa, Liquid	0.06178 W/m/K
341.51 K, 16388 kPa, Liquid	0.07271 W/m/K
341.52 K, 8125 kPa, Liquid	0.0669 W/m/K
341.52 K, 21981 kPa, Liquid	0.07638 W/m/K
341.54 K, 1585 kPa, Liquid	0.05998 W/m/K
341.58 K, 5172 kPa, Liquid	0.06405 W/m/K
341.58 K, 8204 kPa, Liquid	0.06619 W/m/K
341.58 K, 12127 kPa, Liquid	0.07002 W/m/K
341.64 K, 194 kPa, Gas	0.01696 W/m/K
341.72 K, 673 kPa, Gas	0.01756 W/m/K
341.75 K, 673 kPa, Gas	0.01724 W/m/K
341.76 K, 3022 kPa, Liquid	0.0618 W/m/K
341.77 K, 449 kPa, Gas	0.01756 W/m/K
341.77 K, 450 kPa, Gas	0.01753 W/m/K
341.81 K, 1588 kPa, Liquid	0.06 W/m/K
341.81 K, 20066 kPa, Liquid	0.07498 W/m/K
341.83 K, 1416 kPa, Gas	0.01808 W/m/K
341.84 K, 16385 kPa, Liquid	0.0727 W/m/K
341.84 K, 21982 kPa, Liquid	0.07632 W/m/K
341.87 K, 297 kPa, Gas	0.0174 W/m/K
341.88 K, 8122 kPa, Liquid	0.06684 W/m/K
341.91 K, 194 kPa, Gas	0.01763 W/m/K
341.92 K, 12126 kPa, Liquid	0.06996 W/m/K
341.92 K, 20063 kPa, Liquid	0.07481 W/m/K
341.94 K, 8199 kPa, Liquid	0.0668 W/m/K
341.95 K, 21979 kPa, Liquid	0.07618 W/m/K
341.96 K, 16381 kPa, Liquid	0.07254 W/m/K
341.97 K, 1251 kPa, Gas	0.01812 W/m/K
341.97 K, 5173 kPa, Liquid	0.06395 W/m/K
342 K, 8119 kPa, Liquid	0.06663 W/m/K
342.04 K, 96 kPa, Gas	0.0178 W/m/K
342.04 K, 671 kPa, Gas	0.01723 W/m/K
342.04 K, 1049 kPa, Gas	0.01784 W/m/K
342.04 K, 1050 kPa, Gas	0.01784 W/m/K
342.04 K, 12122 kPa, Liquid	0.06981 W/m/K
342.06 K, 8193 kPa, Liquid	0.0666 W/m/K
342.08 K, 870 kPa, Gas	0.01766 W/m/K
342.09 K, 450 kPa, Gas	0.0176 W/m/K
342.09 K, 868 kPa, Gas	0.01764 W/m/K
342.09 K, 5187 kPa, Liquid	0.06375 W/m/K
342.1 K, 450 kPa, Gas	0.01757 W/m/K
342.19 K, 297 kPa, Gas	0.0174 W/m/K
342.2 K, 297 kPa, Gas	0.01731 W/m/K
342.25 K, 1250 kPa, Gas	0.01811 W/m/K
342.26 K, 194 kPa, Gas	0.01748 W/m/K
342.26 K, 1414 kPa, Gas	0.01822 W/m/K
342.27 K, 20059 kPa, Liquid	0.07476 W/m/K
342.3 K, 21979 kPa, Liquid	0.07611 W/m/K
342.32 K, 16372 kPa, Liquid	0.07244 W/m/K
342.33 K, 1047 kPa, Gas	0.01784 W/m/K
342.33 K, 1048 kPa, Gas	0.01781 W/m/K
342.36 K, 669 kPa, Gas	0.01728 W/m/K
342.37 K, 670 kPa, Gas	0.01729 W/m/K
342.38 K, 866 kPa, Gas	0.01767 W/m/K
342.39 K, 867 kPa, Gas	0.01765 W/m/K
342.4 K, 8117 kPa, Liquid	0.06658 W/m/K
342.42 K, 450 kPa, Gas	0.01758 W/m/K
342.43 K, 451 kPa, Gas	0.01761 W/m/K
342.43 K, 12120 kPa, Liquid	0.06971 W/m/K
342.43 K, 21977 kPa, Liquid	0.07598 W/m/K
342.44 K, 97 kPa, Gas	0.01786 W/m/K
342.46 K, 8190 kPa, Liquid	0.06655 W/m/K
342.46 K, 16363 kPa, Liquid	0.07249 W/m/K
342.55 K, 1411 kPa, Gas	0.01807 W/m/K
342.56 K, 296 kPa, Gas	0.01736 W/m/K and 0.01734 W/m/K
342.56 K, 1249 kPa, Gas	0.01814 W/m/K
342.56 K, 8113 kPa, Liquid	0.06632 W/m/K
342.58 K, 12118 kPa, Liquid	0.06949 W/m/K
342.59 K, 1260 kPa, Gas	0.01776 W/m/K
342.64 K, 1045 kPa, Gas	0.01782 W/m/K
342.64 K, 1046 kPa, Gas	0.01782 W/m/K
342.65 K, 194 kPa, Gas	0.01771 W/m/K
342.71 K, 668 kPa, Gas	0.01733 W/m/K
342.71 K, 864 kPa, Gas	0.01769 W/m/K
342.72 K, 865 kPa, Gas	0.01767 W/m/K
342.78 K, 20073 kPa, Liquid	0.07479 W/m/K
342.79 K, 450 kPa, Gas	0.01763 W/m/K
342.79 K, 451 kPa, Gas	0.01763 W/m/K
342.81 K, 21978 kPa, Liquid	0.07589 W/m/K
342.85 K, 97 kPa, Gas	0.01784 W/m/K
342.85 K, 16357 kPa, Liquid	0.07241 W/m/K
342.94 K, 296 kPa, Gas	0.0174 W/m/K and 0.01739 W/m/K
342.96 K, 20077 kPa, Liquid	0.07456 W/m/K
342.97 K, 1044 kPa, Gas	0.01783 W/m/K
342.97 K, 21978 kPa, Liquid	0.07571 W/m/K
342.98 K, 1044 kPa, Gas	0.01784 W/m/K
342.98 K, 12116 kPa, Liquid	0.06939 W/m/K
343.02 K, 16352 kPa, Liquid	0.07225 W/m/K
343.05 K, 862 kPa, Gas	0.01767 W/m/K
343.05 K, 863 kPa, Gas	0.0177 W/m/K
343.06 K, 194 kPa, Gas	0.01766 W/m/K
343.07 K, 666 kPa, Gas	0.01736 W/m/K
343.08 K, 667 kPa, Gas	0.01735 W/m/K
343.16 K, 1405 kPa, Gas	0.01819 W/m/K
343.25 K, 1255 kPa, Gas	0.01787 W/m/K
343.28 K, 96 kPa, Gas	0.01785 W/m/K
343.32 K, 1043 kPa, Gas	0.01783 W/m/K
343.35 K, 296 kPa, Gas	0.01753 W/m/K
343.48 K, 194 kPa, Gas	0.01763 W/m/K

Conditions	thermal conductivity [W/m/K]
343.15 K, Liquid	0.05993

Reference: the NIST ThermoML archive (doi:10.1021/je200811n)
